Measured values published in the NIST ThermoML archive (doi:10.1007/s10765-009-0566-6).
Numbers after ± are expanded uncertainties.

Assay: osmotic coefficient (dimensionless); mn = molality of the nth substance listed, in mol/kg
Details: Liquid, vapor pressure osmometry

Question: Which osmotic coefficient (298.15 K, m1 = 0.014) does the source give for `CCCCCn1cc[n+](C)c1.[Cl-]` [1-methyl-3-pentylimidazolium chloride] + O here?
Answer: 0.931 ± 0.019

Question: And the osmotic coefficient (298.15 K, m1 = 0.0263)?
Answer: 0.889 ± 0.018

Question: What about the osmotic coefficient (298.15 K, m1 = 0.0391) of the same compound?
Answer: 0.882 ± 0.018

Question: What about the osmotic coefficient (298.15 K, m1 = 0.0518) of the same compound?
Answer: 0.871 ± 0.018

Question: What about the osmotic coefficient (298.15 K, m1 = 0.0634) of the same compound?
Answer: 0.863 ± 0.018

Question: And the osmotic coefficient (298.15 K, m1 = 0.084)?
Answer: 0.852 ± 0.018

Question: And the osmotic coefficient (298.15 K, m1 = 0.1007)?
Answer: 0.841 ± 0.018

Question: What about the osmotic coefficient (298.15 K, m1 = 0.1369) of the same compound?
Answer: 0.821 ± 0.018

Question: What about the osmotic coefficient (298.15 K, m1 = 0.1784) of the same compound?
Answer: 0.805 ± 0.018

Question: What about the osmotic coefficient (298.15 K, m1 = 0.2198) of the same compound?
Answer: 0.797 ± 0.017

Question: What about the osmotic coefficient (298.15 K, m1 = 0.2765) of the same compound?
Answer: 0.79 ± 0.017

Question: And the osmotic coefficient (298.15 K, m1 = 0.3517)?
Answer: 0.781 ± 0.017

Question: And the osmotic coefficient (298.15 K, m1 = 0.4043)?
Answer: 0.768 ± 0.017

Question: And the osmotic coefficient (298.15 K, m1 = 0.5014)?
Answer: 0.75 ± 0.017

Question: And the osmotic coefficient (298.15 K, m1 = 0.5758)?
Answer: 0.735 ± 0.017

Question: What about the osmotic coefficient (298.15 K, m1 = 0.8464) of the same compound?
Answer: 0.722 ± 0.017

Question: And the osmotic coefficient (298.15 K, m1 = 1.002)?
Answer: 0.71 ± 0.018

Question: What about the osmotic coefficient (298.15 K, m1 = 1.376) of the same compound?
Answer: 0.697 ± 0.018

Question: What about the osmotic coefficient (298.15 K, m1 = 1.797) of the same compound?
Answer: 0.687 ± 0.018

Question: What about the osmotic coefficient (308.15 K, m1 = 0.014) of the same compound?
Answer: 0.938 ± 0.019

Question: What about the osmotic coefficient (308.15 K, m1 = 0.0263) of the same compound?
Answer: 0.905 ± 0.018

Question: And the osmotic coefficient (308.15 K, m1 = 0.0391)?
Answer: 0.887 ± 0.018

Question: What about the osmotic coefficient (308.15 K, m1 = 0.0518) of the same compound?
Answer: 0.878 ± 0.018

Question: And the osmotic coefficient (308.15 K, m1 = 0.0634)?
Answer: 0.868 ± 0.018

Question: And the osmotic coefficient (308.15 K, m1 = 0.084)?
Answer: 0.858 ± 0.018

Question: What about the osmotic coefficient (308.15 K, m1 = 0.1007) of the same compound?
Answer: 0.845 ± 0.018

Question: What about the osmotic coefficient (308.15 K, m1 = 0.1369) of the same compound?
Answer: 0.829 ± 0.018

Question: And the osmotic coefficient (308.15 K, m1 = 0.1784)?
Answer: 0.812 ± 0.018

Question: What about the osmotic coefficient (308.15 K, m1 = 0.2198) of the same compound?
Answer: 0.803 ± 0.018

Question: And the osmotic coefficient (308.15 K, m1 = 0.2765)?
Answer: 0.795 ± 0.017

Question: What about the osmotic coefficient (308.15 K, m1 = 0.3517) of the same compound?
Answer: 0.788 ± 0.017

Question: What about the osmotic coefficient (308.15 K, m1 = 0.4043) of the same compound?
Answer: 0.78 ± 0.017

Question: And the osmotic coefficient (308.15 K, m1 = 0.5014)?
Answer: 0.753 ± 0.017

Question: And the osmotic coefficient (308.15 K, m1 = 0.5758)?
Answer: 0.742 ± 0.017

Question: What about the osmotic coefficient (308.15 K, m1 = 0.8464) of the same compound?
Answer: 0.726 ± 0.017

Question: What about the osmotic coefficient (308.15 K, m1 = 1.002) of the same compound?
Answer: 0.715 ± 0.018

Question: What about the osmotic coefficient (308.15 K, m1 = 1.376) of the same compound?
Answer: 0.704 ± 0.018

Question: And the osmotic coefficient (308.15 K, m1 = 1.797)?
Answer: 0.691 ± 0.018

Question: What about the osmotic coefficient (318.15 K, m1 = 0.014) of the same compound?
Answer: 0.941 ± 0.019

Question: What about the osmotic coefficient (318.15 K, m1 = 0.0263) of the same compound?
Answer: 0.911 ± 0.018

Question: And the osmotic coefficient (318.15 K, m1 = 0.0391)?
Answer: 0.903 ± 0.018

Question: And the osmotic coefficient (318.15 K, m1 = 0.0518)?
Answer: 0.885 ± 0.018

Question: What about the osmotic coefficient (318.15 K, m1 = 0.0634) of the same compound?
Answer: 0.878 ± 0.018

Question: And the osmotic coefficient (318.15 K, m1 = 0.084)?
Answer: 0.865 ± 0.018

Question: What about the osmotic coefficient (318.15 K, m1 = 0.1007) of the same compound?
Answer: 0.854 ± 0.018

Question: What about the osmotic coefficient (318.15 K, m1 = 0.1369) of the same compound?
Answer: 0.845 ± 0.018

Question: What about the osmotic coefficient (318.15 K, m1 = 0.1784) of the same compound?
Answer: 0.831 ± 0.018

Question: What about the osmotic coefficient (318.15 K, m1 = 0.2198) of the same compound?
Answer: 0.822 ± 0.018

Question: What about the osmotic coefficient (318.15 K, m1 = 0.2765) of the same compound?
Answer: 0.803 ± 0.018

Question: What about the osmotic coefficient (318.15 K, m1 = 0.3517) of the same compound?
Answer: 0.794 ± 0.017

Question: And the osmotic coefficient (318.15 K, m1 = 0.4043)?
Answer: 0.784 ± 0.017

Question: What about the osmotic coefficient (318.15 K, m1 = 0.5014) of the same compound?
Answer: 0.76 ± 0.017

Question: And the osmotic coefficient (318.15 K, m1 = 0.5758)?
Answer: 0.748 ± 0.017

Question: What about the osmotic coefficient (318.15 K, m1 = 0.8464) of the same compound?
Answer: 0.735 ± 0.017

Question: What about the osmotic coefficient (318.15 K, m1 = 1.002) of the same compound?
Answer: 0.723 ± 0.017

Question: And the osmotic coefficient (318.15 K, m1 = 1.376)?
Answer: 0.711 ± 0.018

Question: And the osmotic coefficient (318.15 K, m1 = 1.797)?
Answer: 0.697 ± 0.018

Question: And the osmotic coefficient (328.15 K, m1 = 0.014)?
Answer: 0.949 ± 0.019

Question: And the osmotic coefficient (328.15 K, m1 = 0.0263)?
Answer: 0.923 ± 0.019

Question: And the osmotic coefficient (328.15 K, m1 = 0.0391)?
Answer: 0.908 ± 0.018

Question: What about the osmotic coefficient (328.15 K, m1 = 0.0518) of the same compound?
Answer: 0.897 ± 0.018

Question: What about the osmotic coefficient (328.15 K, m1 = 0.0634) of the same compound?
Answer: 0.886 ± 0.018

Question: What about the osmotic coefficient (328.15 K, m1 = 0.084) of the same compound?
Answer: 0.87 ± 0.018

Question: What about the osmotic coefficient (328.15 K, m1 = 0.1007) of the same compound?
Answer: 0.866 ± 0.018

Question: And the osmotic coefficient (328.15 K, m1 = 0.1369)?
Answer: 0.849 ± 0.018

Question: And the osmotic coefficient (328.15 K, m1 = 0.1784)?
Answer: 0.837 ± 0.018

Question: What about the osmotic coefficient (328.15 K, m1 = 0.2198) of the same compound?
Answer: 0.828 ± 0.018

Question: What about the osmotic coefficient (328.15 K, m1 = 0.2765) of the same compound?
Answer: 0.809 ± 0.018

Question: And the osmotic coefficient (328.15 K, m1 = 0.3517)?
Answer: 0.799 ± 0.017

Question: What about the osmotic coefficient (328.15 K, m1 = 0.4043) of the same compound?
Answer: 0.79 ± 0.017

Question: And the osmotic coefficient (328.15 K, m1 = 0.5014)?
Answer: 0.771 ± 0.017

Question: And the osmotic coefficient (328.15 K, m1 = 0.5758)?
Answer: 0.756 ± 0.017

Question: And the osmotic coefficient (328.15 K, m1 = 0.8464)?
Answer: 0.739 ± 0.017

Question: What about the osmotic coefficient (328.15 K, m1 = 1.002) of the same compound?
Answer: 0.73 ± 0.017

Question: And the osmotic coefficient (328.15 K, m1 = 1.376)?
Answer: 0.718 ± 0.017

Question: And the osmotic coefficient (328.15 K, m1 = 1.797)?
Answer: 0.704 ± 0.018
